Source: patent US8530667B2, “Herbicides” (Syngenta Limited, priority 2007, dated 2013)

How the values were obtained:
Type in all cases: in vivo
[1] = test system: Alopecurus myosuroides (ALOMY); test: Example A pre-emergence herbicidal activity, glasshouse pot test; details: Rate 250 g/ha, evaluated 19 or 20 days later, read-out: Pre-Emergence Activity ALOMY (100=total damage to plant; 0=no damage to plant)
Experimental: (§1) Seeds of a variety of test species were sown in standard soil in pots. After cultivation for one day (pre-emergence) or after 10 days cultivation (post-emergence) under controlled conditions in a glasshouse, the plants were sprayed with an aqueous spray solution derived from the formulation of the technical active ingredient in 0.6 ml acetone and 45 ml formulation solution containing 10.6% Emulsogen EL (Registry number 61791-12-6), 42.2% N-methylpyrrolidone, 42.2% dipropylene glycol monomethyl ether (Registry number 34590-94-8) and 0.2% X-77 (Registry number 11097-66-8). The test plants were then grown in a greenhouse under optimum conditions until, 14 or 15 days later for post-emergence and 19 or 20 days for pre-emergence, the test was evaluated (100=total damage to plant; 0=no damage to plant). Alopecurus myosuroides (ALOMY), Avena fatua (AVEFA), Lolium perenne (LOLPE), Setaria faberi (SETFA), Digitaria sanguinalis (DIGSA), Echinochloa crus-galli (ECHCG)

Avena fatua (AVEFA) [2] = test: as above; details: Rate 250 g/ha, evaluated 19 or 20 days later, read-out: Pre-Emergence Activity AVEFA (100=total damage to plant; 0=no damage to plant)
Experimental: as §1

[3] = test system: Digitaria sanguinalis (DIGSA); test: as above; details: Rate 250 g/ha, evaluated 19 or 20 days later, read-out: Pre-Emergence Activity DIGSA (100=total damage to plant; 0=no damage to plant)
Experimental: as §1

[4] = test system: Echinochloa crus-galli (ECHCG); test: as above; details: Rate 250 g/ha, evaluated 19 or 20 days later, read-out: Pre-Emergence Activity ECHCG (100=total damage to plant; 0=no damage to plant)
Experimental: as §1

Lolium perenne (LOLPE) [5] = test: as above; details: Rate 250 g/ha, evaluated 19 or 20 days later, read-out: Pre-Emergence Activity LOLPE (100=total damage to plant; 0=no damage to plant)
Experimental: as §1

Setaria faberi (SETFA) [6] = test: as above; details: Rate 250 g/ha, evaluated 19 or 20 days later, read-out: Pre-Emergence Activity SETFA (100=total damage to plant; 0=no damage to plant)
Experimental: as §1

[7] = test system: Alopecurus myosuroides (ALOMY); test: Example A post-emergence herbicidal activity, glasshouse pot test; details: Rate 125 g/ha, evaluated 14 or 15 days later, read-out: Post-Emergence Activity ALOMY (100=total damage to plant; 0=no damage to plant)
Experimental: as §1

Avena fatua (AVEFA) [8] = test: as above; details: Rate 125 g/ha, evaluated 14 or 15 days later, read-out: Post-Emergence Activity AVEFA (100=total damage to plant; 0=no damage to plant)
Experimental: as §1

[9] = test system: Digitaria sanguinalis (DIGSA); test: as above; details: Rate 125 g/ha, evaluated 14 or 15 days later, read-out: Post-Emergence Activity DIGSA (100=total damage to plant; 0=no damage to plant)
Experimental: as §1

[10] = test system: Echinochloa crus-galli (ECHCG); test: as above; details: Rate 125 g/ha, evaluated 14 or 15 days later, read-out: Post-Emergence Activity ECHCG (100=total damage to plant; 0=no damage to plant)
Experimental: as §1

Lolium perenne (LOLPE) [11] = test: as above; details: Rate 125 g/ha, evaluated 14 or 15 days later, read-out: Post-Emergence Activity LOLPE (100=total damage to plant; 0=no damage to plant)
Experimental: as §1

Setaria faberi (SETFA) [12] = test: as above; details: Rate 125 g/ha, evaluated 14 or 15 days later, read-out: Post-Emergence Activity SETFA (100=total damage to plant; 0=no damage to plant)
Experimental: as §1

[13] = test system: Alopecurus myosuroides (ALOMY); test: Example B post-emergence herbicidal activity, glasshouse pot test; details: 312 h, rate 1000 g/ha, evaluated after 13 days, read-out: Post-emergence activity ALOMY (100=total damage to plant; 0=no damage to plant)
Outline: (§2)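 Seeds sown in standard soil in pots were sprayed 1 day (pre-emergence) or 8 days (post-emergence) after sowing with the active ingredient in acetone/water (50:50) plus 0.5% Tween 20. Plants were kept in a glasshouse at 24/16° C day/night, 14 h light, 65% humidity. Damage was scored after 13 days (0–100).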

[14] = test system: Amaranthus retoflexus (AMARE); test: as above; details: Amaranthus retroflexus, 312 h, rate 1000 g/ha, evaluated after 13 days, read-out: Post-emergence activity AMARE (100=total damage to plant; 0=no damage to plant)
Outline: as §2

Avena fatua (AVEFA) [15] = test: as above; details: 312 h, rate 1000 g/ha, evaluated after 13 days, read-out: Post-emergence activity AVEFA (100=total damage to plant; 0=no damage to plant)
Outline: as §2

[16] = test system: Echinochloa crus-galli (ECHCG); test: as above; details: 312 h, rate 1000 g/ha, evaluated after 13 days, read-out: Post-emergence activity ECHCG (100=total damage to plant; 0=no damage to plant)
Outline: as §2

Setaria faberi (SETFA) [17] = test: as above; details: 312 h, rate 1000 g/ha, evaluated after 13 days, read-out: Post-emergence activity SETFA (100=total damage to plant; 0=no damage to plant)
Outline: as §2

Row | Compound | pest or weed control at 250 g/ha [1] [%] | pest or weed control at 250 g/ha (Avena fatua (AVEFA) [2]) [%] | pest or weed control at 250 g/ha [3] [%] | pest or weed control at 250 g/ha [4] [%] | pest or weed control at 250 g/ha (Lolium perenne (LOLPE) [5]) [%] | pest or weed control at 250 g/ha (Setaria faberi (SETFA) [6]) [%] | pest or weed control at 125 g/ha [7] [%] | pest or weed control at 125 g/ha (Avena fatua (AVEFA) [8]) [%] | pest or weed control at 125 g/ha [9] [%] | pest or weed control at 125 g/ha [10] [%] | pest or weed control at 125 g/ha (Lolium perenne (LOLPE) [11]) [%] | pest or weed control at 125 g/ha (Setaria faberi (SETFA) [12]) [%] | pest or weed control at 1000 g/ha [13] [%] | pest or weed control at 1000 g/ha [14] [%] | pest or weed control at 1000 g/ha (Avena fatua (AVEFA) [15]) [%] | pest or weed control at 1000 g/ha [16] [%] | pest or weed control at 1000 g/ha (Setaria faberi (SETFA) [17]) [%]
1 | COc1ccc(-c2nc(C3C(=O)[C@@H]4[C@H](C3=O)[C@H]3CC[C@@H]4O3)c(C)s2)cc1 (some centres unmarked) [Compound T21] | 90 | 70 | 100 | 100 | 90 | 100 | 50 | 20 | 80 | 100 | 40 | 80 | 100 | 0 | 100 | 100 | 100
2 | Cc1sc(-c2ccc(Br)cc2)nc1C1C(=O)[C@@H]2[C@H](C1=O)[C@H]1CC[C@@H]2O1 (some centres unmarked) [Compound T28] | 100 | 100 | 100 | 100 | 100 | 100 | 70 | 70 | 100 | 100 | 50 | 80 |  |  |  |  | 
3 | Cc1sc(-c2ccc(Cl)cc2)cc1C1=C(OC(=O)C(C)C)[C@@H]2[C@H](C1=O)[C@H]1CC[C@@H]2O1 (racemic) [Compound P2] | 30 | 0 | 0 | 50 | 50 | 0 | 90 | 90 | 80 | 100 | 70 | 80 |  |  |  |  | 
4 | Cc1sc(-c2ccc(Cl)cc2)nc1C1C(=O)[C@H]2[C@@H]3CC[C@@](C)(O3)[C@H]2C1=O (mixture of isomers) [Compound T24] | 90 | 60 | 100 | 100 | 90 | 100 | 70 | 70 | 90 | 100 | 30 | 80 |  |  |  |  | 
5 | Cc1sc(-c2ccc(Cl)cc2)nc1C1C(=O)[C@@H]2[C@H](C1=O)[C@H]1CC[C@@H]2O1 (some centres unmarked) [Compound T22] | 100 | 100 | 100 | 100 | 100 | 100 | 70 | 70 | 100 | 100 | 20 | 60 |  |  |  |  | 
